One data set deals with CaNOX. Description: Kinetics of NADH oxidase (NOX) with modified cofactor. It is filed as biochemical, Clostridium aminoverlaricum. To be noted: for Kcat / Km: cofactor as substrate of CaNOX. The procedure: (§1) The relative enzyme activity for the NAD-dependant glycerol-3-phosphate dehydrogenase enzymes identified for DHAP synthesis was assessed with the modified N^6-2AE-NAD. Kinetic data for EcG3PD and CaNOX was also obtained. To determine the relative activities and kinetic enzyme efficiency, modified N^6-2AE-NAD was reduced enzymatically, separated from enzymes using ultrafiltration and the amount of N^6-2AE-NADH calculated based on the absorbance A340nm.

A short description of data set [1]: Batch reactions converting glycerol to G3P and DHAP. Type of data set: biochemical. The procedure:
Reactions were conducted at room temperature in 1 mL total volume with 10 mM glycerol as starting substrate, between 1 and 14 nM of enzyme and 100 μM each of ATP and NAD. Samples were collected at various time points and analysed by LCMS (SIM monitoring for G3P and DHAP).
G3P and DHAP were separated using a modification of the method described in Prieto-Blanc et al., (2010). Chromatographic conditions were SIELC ObeliscN column (250 mm) with 50% mobile phase A, 50% mobile phase B for 30 minutes. Mobile phase A: 0.1% formic acid; mobile phase b: methanol with 0.1% acetic acid. Mass spectrophotometric detection was conducted using API-ES mode with an Agilent 6120 Quadroploe LCMS. Glycerol-3-phosphate was quantified by selected ion monitoring of ion 171, DHAP quantified by selected ion monitoring of ion 169, the three aldol condensation products fructose-1,6-biphosphate, “AP” and “XP” were quantified by selected ion monitoring of […].

A further data set concerns the target T1, EcG3PD2 (Escherichia coli, UniProt P0A6S7).
T1 construct: His tag; made in house; host or cells: E. coli BL21AI or BL21DE3*
T1 sequence (P0A6S7 1-339): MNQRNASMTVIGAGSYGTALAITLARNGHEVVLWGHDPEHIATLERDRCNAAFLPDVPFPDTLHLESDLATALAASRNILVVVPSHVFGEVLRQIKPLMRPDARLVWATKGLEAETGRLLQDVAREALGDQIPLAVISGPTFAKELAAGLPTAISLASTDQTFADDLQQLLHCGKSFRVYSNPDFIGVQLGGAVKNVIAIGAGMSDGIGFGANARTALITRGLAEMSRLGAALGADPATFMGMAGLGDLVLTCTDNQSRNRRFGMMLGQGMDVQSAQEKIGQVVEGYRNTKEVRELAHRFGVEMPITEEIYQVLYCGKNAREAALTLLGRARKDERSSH
Description: Kinetics of glycerol-3-phosphate dehydrogenase with modified cofactor. It is filed as biochemical, E. coli. To be noted: EcG3PD, full kinetic analysis. The procedure:
as §1
(§2) Glycerol-3-phosphate dehydrogenase assays were conducted essentially as described by (Sakasegawa et al., 2004). Kinetics were determined by varying the concentrations of NAD/NADP or glycerol-3-phosphate, whilst maintaining the other components in excess, and kinetic determinants were calculated using Hyper (J. S. Easterby, Liverpool University). Substrate and cofactor concentrations ranged from 0.1 to 10×Km.

In a further data set the test system is CaNOX::AaE2. It is filed as biochemical, Alicyclobacillus acidophilus. The settings on record: after 5 min incubation with inhibitor on ice.
Data set [2] has as its system EcG3PD::CaNOX::AaE2 (TriF2). Type of data set: biochemical, Alicyclobacillus acidophilus. The settings on record: after 5 min incubation with inhibitor on ice.
Substrate in data set [3]: NC(=O)c1ccc[n+]([C@@H]2O[C@H](COP(=O)([O-])OP(=O)(O)OC[C@H]3O[C@@H](n4cnc5c(N)ncnc54)[C@H](O)[C@@H]3O)[C@@H](O)[C@H]2O)c1
Description: Kinetics of glycerol-3-phosphate dehydrogenase with modified cofactor. Type of data set: biochemical, E. coli. The settings on record: other: cofactor as substrate of EcG3PD2. The procedure:
as §1, §2

Substrate in data set [4]: NCCNc1ncnc2c1ncn2[C@H]1O[C@@H](COP(=O)(O)OP(=O)(O)OC[C@H]2O[C@@H]([n+]3cccc(C(N)=O)c3)C(O)C2O)C(O)C1O
The data set is described as above. Type of data set: biochemical, E. coli. To be noted: other: cofactor as substrate of EcG3PD2. Here is the method:
as §1, §2

As to `NC(=O)C1=CN([C@@H]2O[C@H](COP(=O)(O)OP(=O)(O)OC[C@H]3O[C@@H](n4cnc5c(N)ncnc54)[C@H](O)[C@@H]3O)[C@@H](O)[C@H]2O)C=CC1` [NADH], in the data set with CaNOX, the Kcat was determined as 1204 ± 67.5 s⁻¹ and the Michaelis-Menten constant (Km) (in general, the substrate concentration at which the rate is half of its maximum) was 204 ± 15.4 µM.
For `Nc1ncnc2c1ncn2[C@@H]1O[C@H](COP(=O)(O)OP(=O)(O)OP(=O)(O)O)[C@@H](O)[C@H]1O` [ATP, adenosine triphosphate], in data set [1] (BiF1 plus BiF2 batch reaction), the “turnover of ATP per hour” value is roughly 40 h⁻¹. The “turnovers of ATP per batch reaction” value is roughly 200 in data set [1] (BiF1 plus BiF2 batch, 90 mM conversion of glycerol from 0.1 mM ATP starting concentration) and roughly 450 in data set [1] (TriF1 plus TriF2 batch, 4.5 mM conversion of glycerol from 0.01 mM ATP starting concentration).
As for `NCCNc1ncnc2c1ncn2[C@H]1O[C@@H](COP(=O)(O)OP(=O)(O)OC[C@H]2O[C@@H]([n+]3cccc(C(N)=O)c3)C(O)C2O)C(O)C1O` (some centres unmarked) [N^6-2AE-NAD, N^6-(2-aminoethyl)-NAD^+], the “activity retained with the modified cofactor compared with unmodified NAD” value on EcG3PD2 worked out at 78%.
Take `NCCNc1ncnc2c1ncn2[C@@H]1O[C@H](COP(=O)(O)OP(=O)(O)OC[C@H]2O[C@@H](N3C=CCC(C(N)=O)=C3)[C@H](O)[C@@H]2O)[C@@H](O)[C@H]1O` [N^6-2AE-NADH]: in the data set with CaNOX (NOX1 (CaNOX)), the “catalytic efficiency compared to NADH as substrate” value is on record as “reduction in the catalytic efficiency”. In addition, in the data set on CaNOX, the Kcat turned out to be 343 ± 32.6 s⁻¹ and the Michaelis constant (Km) amounted to 215 ± 27.2 µM.
`CCCCCCSCC(=O)C(F)(F)F` [1,1,1-trifluoro-3-(thiohexyl)propan-2-one]: the residual esterase activity entry (with CaNOX::AaE2; in data set [2]) was “completely abolished” throughout.

B1: EcG3PD2 (Escherichia coli K-12) (protein)
chain: T1 sequence (P0A6S7 1-339)
notes: His tag; made in house; host or cells: E. coli BL21AI or BL21DE3*
With B1, in data set [3], the Michaelis-Menten constant (Km) was found to be 147.1 ± 25.4 µM; the kcat (usually the number of substrate molecules converted per active site and unit of time at saturation) was 66.7 ± 10.6 s⁻¹; the specificity constant (kcat/Km) (in general, the second-order rate constant that governs catalysis at low substrate concentration) was 450000 M⁻¹ s⁻¹. Further, in data set [4], the Km is 181.2 ± 37.5 µM, the kcat came out at 63.5 ± 9.4 s⁻¹ and the kcat/Km stood at 350000 M⁻¹ s⁻¹.

(Values after US20180208920A1, “MOLECULAR MACHINES” (Commonwealth Scientific and Industrial Research Organisation, priority 2015, published 2018).)
